From patent US4517311A, “2'-Substituted-spiro[benzofuran-2(3H),1'-cycloalkanes] and their analgesic and anti-depressant compositions” (Hoechst-Roussel Pharmaceuticals Inc., priority 1982, dated 1985)
Where a name gives a salt, the structure may show the parent alone. Read-outs that look alike come from different tables or passages of the source.

Legend:
[1] = test system: tetrabenazine-induced depression in mice; assay: Antidepressant activity (inhibition of tetrabenazine induced ptosis / tetrabenazine-induced depression); type: in vivo; details: for ED50: Mus musculus
Procedure: (§1) The antidepressant and analgesic activities of various spiro compounds having the formula [drawing 32] where X is hydrogen, chlorine or bromine and m is 1 or 2, taken as representative of a lower class of compounds having the formula I are presented in Table 1. The data presented therein were determined in accordance with the above described procedures.
1. Antidepressant activity (as measured by inhibition of
tetrabenazine induced ptosis).
3. Anti-depressant activity (as measured by inhibition
tetrabenazine induced ptosis)

[2] = test system: phenylquinone writhing in mice; assay: Analgesic activity (phenylquinone writhing test); type: in vivo, male, CD-1 mice; details: for ED50: Mus musculus, sc, Table 1 part 2, estimated by computer linear regression analysis; for % Inhibition (analgesic activities, phenylquinone writhing test): 20 mg/kg, subcutaneously (sc), Table 1 part 4
Procedure: This produces a characteristic "writhe" which is defined as an inward rotation of one or more feet with twisting and turning of the trunk, drawing in of the abdominal wall, lordosis and arching of the back.
A total of 28 male, CD-1 mice (18 to 30 grams) are employed for a time response. Animals receive food and water ad libitum. Drugs to be tested are prepared with distilled water, and if insoluble, one drop of a suitable surfactant is added.
Twenty animals (5/group) are administered the drug subcutaneously (sc) 15, 30, 45 and 60 minutes prior to phenylquinone injection. Control animals (2/group) receive an equal amount of vehicle. After the administration of phenylquinone, the mice are placed separately into one-liter beakers and 5 minutes are allowed to elapse. The mice are then observed for a period of 10 minutes and the number of writhes are recorded for each animal. The formula for computing percent inhibition is: [formula]
The time period with the greatest percent of inhibition is considered the peak time.
A dose range is run in the same fashion as a time response except ten animals per group are tested at the peak time of drug activity. Fifty animals, four drug groups, and a vehicle control are employed. Animals are dosed and tested in a randomized manner. An estimated ED50 is calculated by a computer linear regression analysis.
as §1
2. Analgesic activities (as measured in the
phenylquinone writhing test).

[3] = po, Table 1 part 1, read-out: ED50 (antidepressant activity, inhibition of tetrabenazine induced ptosis)

| SMILES | ED50 [1, 3] | further results |
| --- | --- | --- |
| CN(C)C[C@@H]1CCCC[C@]12Cc1c(Cl)cccc1O2 (relative stereo) [4-chloro Me trans 1, (1'α2'β)-2'-Dimethylaminomethylspiro[4-chlorobenzofuran-2(3H),1'-cyclohexane]Hydrochloride] | 5.7 mg/kg | – |
| CN(C)C[C@@H]1CCCC[C@@]12Cc1cc(Cl)c(Cl)cc1O2 (relative stereo) [5,6-dichloro Me cis 1, (1'β,2'β)-2'-Dimethylaminomethylspiro[5,6-dichlorobenzofuran-2(3H),1'-cyclohexane]Hydrochloride] | 3.46 mg/kg | – |
| CN(C)C[C@@H]1CCCC[C@@]12Cc1cc(Br)ccc1O2 (relative stereo) [5-bromo Me cis 1, (1'β,2'β)-2'-Dimethylaminomethylspiro[5-bromobenzofuran-2(3H),1'-cyclohexane]Hydrochloride] | 4.73 mg/kg | – |
| CCN(CC)C[C@@H]1CCCC[C@@]12Cc1cc(Cl)ccc1O2 (relative stereo) [5-chloro Et cis 1, (1'β,2'β)-2'-Diethylaminomethylspiro[5-chlorobenzofuran-2(3H),1'-cyclohexane]Hydrochloride] | 4.73 mg/kg | – |
| CN(C)C[C@@H]1CCCC[C@@]12Cc1cc(Cl)ccc1O2 (relative stereo) [5-chloro Me cis 1, (1'β,2'β)-2'-Dimethylaminomethylspiro[5-chlorobenzofuran-2(3H),1'-cyclohexane]Hydrochloride] | 1.5 mg/kg | ED50 [2]: 4.96 mg/kg |
| CN(C)C[C@@H]1CCCC[C@]12Cc1cc(Cl)ccc1O2 (relative stereo) [5-chloro Me trans 1, (1'α,2'β)-2'-Dimethylaminomethylspiro[5-chlorobenzofuran-2(3H),1'-cyclohexane]Hydrochloride] | 1.39 mg/kg | – |
| CN(C)C[C@@H]1CCCC[C@]12Cc1ccc(Cl)cc1O2 (relative stereo) [6-chloro Me trans 1, (1'α,1'β)-2'-Dimethylaminomethylspiro[6-chlorobenzofuran-2(3H),1'-cyclohexane]Hydrochloride] | 0.42 mg/kg | – |
| CN(C)C[C@@H]1CCC[C@@]12Cc1cc(Br)ccc1O2 (relative stereo) [(1'β,2'β)-2'-dimethylaminomethylspiro[5-bromobenzofuran-2(3H),1'-cyclopentane]hydrochloride] | – | ED50 ([1]; (po) [orally], Table 1 part 3, read-out: 50% Inhibition (ED50), anti-depressant activity, inhibition of tetrabenazine induced ptosis): 17.3 mg/kg; % Inhibition (analgesic activities, phenylquinone writhing test) [2]: 53% |
| CN(C)C[C@@H]1CCC[C@@]12Cc1cc(Cl)ccc1O2 (relative stereo) [(1'β,2'β)-2'-dimethylaminomethylspiro[5-chlorobenzofuran-2(3H),1'-cyclopentane]hydrochloride] | – | % Inhibition (analgesic activities, phenylquinone writhing test) [2]: 40% |
| CN(C)C[C@@H]1CCC[C@@]12Cc1ccccc1O2 (relative stereo) [(1'β,2'β)-2'-dimethylaminomethylspiro[benzofuran-2(3H),1'-cyclopentane]hydrochloride] | – | % Inhibition (anti-depressant activity, inhibition of tetrabenazine induced ptosis) ([1]; 20 mg/kg intraperitoneal, Table 1 part 3): 53%; % Inhibition (analgesic activities, phenylquinone writhing test) [2]: 37% |
| CN(C)C[C@@H]1CCCC[C@@]12Cc1ccccc1O2 (relative stereo) [H Me cis 1, (1'β,2'β)-2'-Dimethylaminomethylspiro[benzofuran-2(3H),1'-cyclohexane]Hydrochloride] | – | ED50 [2]: 5.98 mg/kg |
| CN(C)C[C@@H]1CCCC[C@]12Cc1ccccc1O2 (relative stereo) [H Me trans 1, (1'β,2'β)-2'-Dimethylaminomethylspiro[benzofuran-2(3H),1'-cyclohexane]Hydrochloride] | 3 mg/kg | ED50 [2]: 2.9 mg/kg |
